Assay results: patent US20020042079A1, “METHODS AND AGENTS FOR MEASURING AND CONTROLLING MULTIDRUG RESISTANCE” (priority 1994, published 2002)
Entries after “also recorded” stand apart in the source; their conditions may differ.

Key:
MCF-7/ADR cells [1] = experiment: Cell viability assay of Adriamycin sensitivity (Hoechst 33258 DNA content); settings: for effect on sensitivity of drug-resistant cells to Adriamycin: MCF-7/ADR (MCF-7adr) cells, agent co-incubated with adriamycin for 6 hours
Procedure: After 6 hours, the media was removed, the cells rinsed, and then fed with fresh media not containing drugs. […] Media was aspirated and the wells rinsed with Hanks Balanced Salt Solution (HBSS, phenol red free). The cells were sonicated in hypotonic media (0.1×HBSS) for 30 seconds. […] Calf thymus DNA was used for calibration.
Cell viability assays: The media was removed 60 hr. after plating the cells and replaced with fresh media supplemented with various concentrations of adriamycin (Calbiochem, CA) and monensin (solubilized in DMF 0.1%) (Sigma, St. Louis). After 6 hr the media was removed, the cells rinsed, and then fed with fresh media not containing drugs. […] Media was aspirated and the wells rinsed with Hanks Balanced Salt Solution (HBSS, phenol red free). The cells were sonicated in hypotonic media (0.1×HBSS) for 30 seconds. […] Calf thymus DNA was used for calibration.
Cell Viability Assays: Cell viability was assayed by plating cells at ˜1000 cells/well in 24 well plates (Falcon) in DME. […] The cells were fed daily for three days and then cell viability was quantified with two independent techniques: an assay of total DNA and an assay of volume of viable cells. […] Calf thymus DNA was used for calibration.
After three days cell viability was assayed.

MCF-7/ADR cells [2] = experiment: Subcellular distribution of Adriamycin fluorescence (confocal microscopy); assay type: cell-based, human; settings: for Adriamycin distribution after addition of agent: MCF-7/ADR, Monensin 5 μM, Bafilomycin A1 500 nM, concanomycin 100 nM, Tamoxifen 10 μM (50 μM in Example 3), verapamil 10 μM, cyclosporin 5 μM
Procedure: Adriamycin can be excited between 350 nm-550 nm and emits between 400 nm-700 nm.
Labeling of Cells with Adriamycin: Cells were loaded with Adriamycin (10 μM) added to the perfusion medium. […] For epi-fluorescence, the cells were excited with 450-490 nm filter and emission was monitored with a 510 nm longpass filter.

[3] = lumenal pH of 6 and an external pH of 8; cited from earlier work
[4] = system: isolated microsomes of MCF-7/ADR cells; experiment: In vitro acidification of total microsomal preparation (acridine orange quenching); settings: for rate of dissipation of the pre-existing pH gradient: added 10 minutes after ATP, Bafilomycin A1 100 nM, compared with tamoxifen
Procedure: Acidification of Cellular Microsomes: The acidification of cellular microsomes was assayed spectrophotometrically. Two different approaches were used for assaying acidification: Acidification of the total microsomal preparation using quenching of acridine orange and acidification of the recycling endosomes by monitoring the fluorescence from a microsomal preparation from cells that had previously endocytosed FITC-transferrin.
The homogenate was centrifuged twice for 10 minutes at 3000 g to remove unbroken cells and nuclei. The supernatant was layered over 20 ml of 0.5 M sucrose (20 mM HERES (pH 7.4), 1 mM DTT, 1 mM EDTA, 1×protease inhibitor mix) and 1 ml of 2 M sucrose and centrifuged for one hour at 100,000 g (Beckman Ti60 Rotor). Microsomes are collected at the 0.5 M and 2 M interface.
Acidic vesicles accumulate acridine orange to high concentrations resulting in the self quenching of the dye. This accumulation causes depletion of the acridine orange from the extra-vesicular space, and a decrease of the overall fluorescence of the sample. […] The sample was allowed to equilibrate by stirring for 30 minutes at 25° C. After 5 minutes of recording to establish baseline, 1 mM Tris-ATP was added to begin acidification (100 mM stock, titrated to pH 7.4 with 1 M Tris-base before use).

MCF-7/ADR cells [5] = experiment: Acridine orange labeling of acidic compartments (confocal microscopy); assay type: cell-based, human; settings: for red-orange acridine orange fluorescence of cytoplasmic organelles after addition of agent: MCF-7/ADR, 30 minutes, Monensin 5 μM, Bafilomycin A1 500 nM, concanomycin 100 nM, Tamoxifen 5 or 10 μM, verapamil 10 μM, cyclosporin A 10 μM
Procedure: Confocal fluorescence imaging of intracellular pH and acidic compartments: Acridine orange (2 μg/ml media; 4 mg/ml stock in water) was added directly to the chambers and the cells were incubated with the dye at 37° C. for 30 minutes. Cells in the presence of acridine orange were then examined at room temperature with an Insight Bilateral Laser Scanning Confocal Microscope (Meridian Instruments, Okemos, Mich.). […] Optical sections of the fluorescent sample were recorded at 0.5 micron intervals. […] The acetoxymethylester derivative of SNAFL-calcein (15 μg/ml) (Molecular Probes, Eugene, Oreg.) (a radiometric fluorescent probe for pH) was added to both MCF-7 and MCF-7adr cells. The ester linked fluorescent probe enters the cell passively where the esters are hydrolyzed by esterases located in the cytoplasm and intracellular vesicles. The SNAFL-calcein is then ionically trapped within the cytoplasm and vesicular compartments. […] These images were then compared to standard curves that were obtained in the following manner. […] Cells treated with monensin were exposed to the drug (10 μg/ml of media) for 30 minutes at 37° C. prior to labeling with SNAFL-calcein as described above. All cells were examined at room temperature.
The green and red emissions were collected using two photomultiplier tubes. […] Green emission was next passed through a 530 nm/30 nm bandpass filter and collected by the on-axis photomultiplier tube. Red emission was passed through a 610 nm longpass filter and collected by the 90° side photomultiplier tube.
Optical sections of the fluorescent samples were recorded at 0.5 micron intervals with a 60×oil immersion objective.

MCF-7/ADR cells [6] = experiment: Organelle-specific pH measurements with targeted SNARF and FITC probes in living cells; assay type: cell-based, human; settings: MCF-7/ADR cells; SNARF 70 kD dextran; Tamoxifen at 10 μM
Procedure: Organelle-specific pH measurements: The pH was measured in selective cellular compartments by targeting ratiometric pH probes to specific organelles. […] Using a Nikon epifluorescence microscope with a intensified CCD camera, the pH probe FITC was excited alternately at 450 nm and 490 nm and emission recorded with a 520/10 bandpass filter. […] In short, to calibrate the pH for the endosomal system, the chamber was perfused with 150 mM sodium buffers at pH of 5, 6 or 7 containing of monensin (20 μM) and nigericin (10 μM) for 5 minutes before recording the fluorescence. For the pH calibrations of cytosol and nucleoplasm, the cells were incubated in 140 mM potassium buffers at pH 6.0, 6.5, 7.0 and 7.5 containing nigericin (20 μM).
After endocytosis, the transferrin is transported through the endosomes and then recycled back to the surface without passage through the lysosomes.
pH in the lysosomes: The pH in the lysosomes was assayed both with light and electron microscopy. […] The pH was calibrated as described above. […] The cells were incubated one hour at room temperature, washed with several changes of PBS pH 7.4 containing 50 mM NH4Cl. […] The cells were embedded in LR White in gelatin capsules and baked at 60° C. for 24 hours in a vacuum oven, sectioned and incubated overnight at 4° C. with anti-DNP antibodies in 4% FBS, washed and incubated in gold (10 nm) labeled secondary antibodies for 2 hours. They were then stained and visualized under the electron microscope.
Cells were plated on polystyrene plates at 50% confluency. Twenty-four to thirty-six hours later, the medium was aspirated and the cells were covered with 50 μl of DME with SNARF-dextran (10 mg/ml). The cells were quickly scraped off the polystyrene and placed in pre-chilled tubes containing 1 ml DME without serum. The cells were harvested (100 g for 5 minutes), washed twice with pre-chilled DME, and plated on Lab-Tek chambers in DME with serum. The cells were allowed to recover for 24 hours prior to examination on a confocal microscope. The pH was calibrated from SNARF fluorescence as described above.
pH in the nucleus: The nucleoplasmic pH was probed by loading the cytosol with SNARF conjugated to a 10 kD dextran. This dextran is too large to cross cellular membranes, but can enter the nucleoplasm by diffusion across the nuclear pores. Confocal fluorescence microscopy was used to prepare optical sections through the cell allowing the fluorescence intensity of the nucleoplasm and cytoplasm to be quantified. The 10 kD SNARF-dextran was loaded into the cytosol and imaged using the same techniques for the 70 kD SNARF-dextrans (see above).

| Compound | effect on sensitivity of drug-resistant cells to Adriamycin (MCF-7/ADR cells [1]) | rate of dissipation of the pre-existing pH gradient [4] | Adriamycin distribution after addition of agent (MCF-7/ADR cells [2]) | red-orange acridine orange fluorescence of cytoplasmic organelles after addition of agent (MCF-7/ADR cells [5]) | other results |
| --- | --- | --- | --- | --- | --- |
| N=C(N)NC(=O)c1nc(Cl)c(N)nc1N [amiloride] | functioned in a similar manner | – | – | – | – |
| COc1cccc2c1C(=O)c1c(O)c3c(c(O)c1C2=O)C[C@@](O)(C(=O)CO)C[C@@H]3O[C@H]1C[C@H](N)[C@H](O)[C@H](C)O1 [Adriamycin] | – | – | – | – | time for Adriamycin accumulation to reach a steady-state distribution (MCF-7/ADR cells [2]; MCF-7 and MCF-7/ADR cells): approximately 60 minutes; cell death (MCF-7/ADR cells [1]; 1 μM Adriamycin, absence of Tamoxifen, 6 hours exposure, assayed after three days): less than 20%; accumulation in a liposome [3]: approximately 100 fold |
| CO[C@@H]1C[C@@H](C[C@H]2CC[C@H](C)[C@H]([C@@H](C)C(=O)O)O2)O[C@]2(O[C@](C)([C@H]3CC[C@@](C)([C@@H]4O[C@@H]([C@H]5O[C@@](O)(CO)[C@H](C)C[C@@H]5C)C[C@@H]4C)O3)C[C@H]2C)[C@@H]1C [Nigericin] | functioned in a similar manner | significantly faster than tamoxifen | – | – | acridine orange staining of acidic vesicles after treatment (MCF-7/ADR cells [5]; MCF-7adr (Examples 2, 3), nigericin 7.5 μM, tamoxifen 50 μM): eliminated fluorescent staining of both cytoplasmic vesicles and vesicles within the pericentriolar region; also recorded: immediate loss of orange/red fluorescence |
| C[C@H]1CCC/C=C/[C@@H]2C[C@H](O)C[C@H]2[C@H](O)/C=C/C(=O)O1 [Brefeldin A] | did not affect drug sensitivity | – | – | – | – |
| CO/C1=C\C(C)=C\[C@@H](C)[C@@H](O)[C@@H](C)C/C(C)=C/C=C/[C@H](OC)[C@@H]([C@@H](C)[C@@H](O)[C@H](C)[C@@]2(O)C[C@@H](O)[C@H](C)[C@@H](C(C)C)O2)OC1=O [Bafilomycin A1] | – | dissipated the pH gradient at a much slower rate | redistributed Adriamycin to the nucleoplasm; also recorded: substantially decreased in all cytoplasmic compartments and increased in the nucleoplasm | the punctate red labeling of acidic organelles was lost; also recorded: disappearance of punctate red-orange cytoplasmic fluorescence | acidification of pre-treated microsomes ([4]; Tamoxifen 8 μM, Bafilomycin A1 10 nM, monensin concentration not given): blocked acidification; acidification blocked ([4]; at one tenth of 100 nM): 95% |
| COc1ccc(CCN(C)CCCC(C#N)(c2ccc(OC)c(OC)c2)C(C)C)cc1OC (stereo not shown) [verapamil] | – | – | shifted Adriamycin from punctate cytoplasmic organelles to a diffuse cytoplasmic and nucleoplasmic distribution | loss of the red-orange cytoplasmic fluorescence | shift of cytosolic pH, more alkaline (MCF-7/ADR cells [6]): no measurable effect on cytosolic pH |
